Source: ChEMBL document CHEMBL1201861, “Genomics of Drug Sensitity in Cancer screening data, Wellcome Trust Sanger Institute”

How the values were obtained:
Format in all cases: functional, cell-based
CP67-MEL = assay: SANGER: Inhibition of human CP67-MEL cell growth in a cell viability assay.
EW-12 = assay: SANGER: Inhibition of human EW-12 cell growth in a cell viability assay.; settings: Homo sapiens, EW-12
NCI-H128 = assay: SANGER: Inhibition of human NCI-H128 cell growth in a cell viability assay.; settings: Homo sapiens, NCI-H128
SKM-1 = assay: SANGER: Inhibition of human SKM-1 cell growth in a cell viability assay.; settings: Homo sapiens, SKM-1
TC-YIK = assay: SANGER: Inhibition of human TC-YIK cell growth in a cell viability assay.
ECC10 = assay: cells; settings: Homo sapiens;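 note: growth inhibition of ECC10 cells, read out by a cell viability assay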
Description: SANGER: Inhibition of human ECC10 cell growth in a cell viability assay.

EPLC-272H = assay: cells; settings: Homo sapiens
Description: SANGER: Inhibition of human EPLC-272H cell growth in a cell viability assay.

H-EMC-SS = assay: cells; settings: Homo sapiens
Description: SANGER: Inhibition of human H-EMC-SS cell growth in a cell viability assay.

H9 = assay: cells; settings: Homo sapiens
Description: SANGER: Inhibition of human H9 cell growth in a cell viability assay.

LU-135 = assay: cells; settings: Homo sapiens
Description: SANGER: Inhibition of human LU-135 cell growth in a cell viability assay.

NCI-H1666 = assay: cells; settings: Homo sapiens;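 note: growth inhibition of the cell line, read out with a cell viability assay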
Description: SANGER: Inhibition of human NCI-H1666 cell growth in a cell viability assay.

NCI-H2029 = assay: cells; settings: Homo sapiens;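 note: Read-out is a viability assay on the cultured cells, and IC50 is the concentration that suppresses cell growth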
Description: SANGER: Inhibition of human NCI-H2029 cell growth in a cell viability assay.

OC-314 = assay: cells; settings: Homo sapiens
Description: SANGER: Inhibition of human OC-314 cell growth in a cell viability assay.

RH-18 = assay: cells; settings: Homo sapiens, Rh18;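 note: growth inhibition of human RH-18 cells, read out with a cell viability assay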
Description: SANGER: Inhibition of human RH-18 cell growth in a cell viability assay.

SW 1116 = assay: cells; settings: Homo sapiens;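 note: growth inhibition of SW1116 cells, read out with a cell viability assay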
Description: SANGER: Inhibition of human SW1116 cell growth in a cell viability assay.

SW900 = assay: cells; settings: Homo sapiens;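 note: IC50 is the concentration that inhibits SW900 cell growth, measured by a cell viability assay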
Description: SANGER: Inhibition of human SW900 cell growth in a cell viability assay.

BALL-1 = assay: cells; settings: Homo sapiens;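 note: growth inhibition of BALL-1 cells, read out with a cell viability assay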
Description: SANGER: Inhibition of human BALL-1 cell growth in a cell viability assay.

BT-549 = assay: cells; settings: Homo sapiens
Description: SANGER: Inhibition of human BT-549 cell growth in a cell viability assay.

TI-73 = assay: cells; settings: Homo sapiens;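 note: cell viability assay measuring how much compounds suppress growth of the cultured cell line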
Description: SANGER: Inhibition of human TI-73 cell growth in a cell viability assay.

Calu-1 = assay: SANGER: Inhibition of human Calu-1 cell growth in a cell viability assay.
DMS-53 = assay: cells; settings: Homo sapiens;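 note: cell viability assay measuring growth inhibition of human DMS-53 cells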
Description: SANGER: Inhibition of human DMS-53 cell growth in a cell viability assay.

EFE-184 = assay: cells; settings: Homo sapiens
Description: SANGER: Inhibition of human EFE-184 cell growth in a cell viability assay.

HCC1143 = assay: cells; settings: Homo sapiens;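 note: growth inhibition of human HCC1143 cells, read out with a cell viability assay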
Description: SANGER: Inhibition of human HCC1143 cell growth in a cell viability assay.

IPC-298 = assay: SANGER: Inhibition of human IPC-298 cell growth in a cell viability assay.
NCI-H1618 = assay: cells; settings: Homo sapiens;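 note: growth inhibition of human NCI-H1618 cells, measured by a cell viability assay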
Description: SANGER: Inhibition of human NCI-H1618 cell growth in a cell viability assay.

NCI-H2227 = assay: cells; settings: Homo sapiens;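 note: growth inhibition of the human cell line, read out with a cell viability assay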
Description: SANGER: Inhibition of human NCI-H2227 cell growth in a cell viability assay.

NCI-H838 = assay: cells; settings: Homo sapiens;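 note: growth inhibition of human NCI-H838 cells, read out by a cell viability assay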
Description: SANGER: Inhibition of human NCI-H838 cell growth in a cell viability assay.

PLC-PRF-5 = assay: cells; settings: Homo sapiens;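 note: growth inhibition of human PLC-PRF-5 cells, read out with a viability assay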
Description: SANGER: Inhibition of human PLC-PRF-5 cell growth in a cell viability assay.

RT-4 = assay: SANGER: Inhibition of human RT4 cell growth in a cell viability assay.
SNG-M = assay: cells; settings: Homo sapiens
Description: SANGER: Inhibition of human SNG-M cell growth in a cell viability assay.

SNU-475 = assay: cells; settings: Homo sapiens
Description: SANGER: Inhibition of human SNU-475 cell growth in a cell viability assay.

C-4-II = assay: SANGER: Inhibition of human C-4-II cell growth in a cell viability assay.
TT = assay: cells; settings: Homo sapiens
Description: SANGER: Inhibition of human TT cell growth in a cell viability assay.

COLO 205 = assay: cells; settings: Homo sapiens
Description: SANGER: Inhibition of human COLO-205 cell growth in a cell viability assay.

| SMILES | IC50 (ECC10) [µM] | IC50 (EPLC-272H) [µM] | IC50 (H-EMC-SS) [µM] | IC50 (H9) [µM] | IC50 (LU-135) [µM] | IC50 (NCI-H1666) [µM] | IC50 (NCI-H2029) [µM] | IC50 (OC-314) [µM] | IC50 (RH-18) [µM] | IC50 (SW 1116) [µM] | IC50 (SW900) [µM] | IC50 (BALL-1) [µM] | IC50 (BT-549) [µM] | IC50 (TI-73) [µM] | IC50 (Calu-1) [µM] | IC50 (IPC-298) [µM] | IC50 (RT-4) [µM] | IC50 (C-4-II) [µM] | also measured |
| --- | --- | --- | --- | --- | --- | --- | --- | --- | --- | --- | --- | --- | --- | --- | --- | --- | --- | --- | --- |
| C[C@@H](Oc1cc(-c2cnn(C3CCNCC3)c2)cnc1N)c1c(Cl)ccc(F)c1Cl [CRIZOTINIB] |  |  |  |  |  |  |  |  |  |  |  |  |  |  |  |  |  |  | IC50 (CP67-MEL): > 2 µM; IC50 (EW-12): > 2 µM; IC50 (NCI-H128): > 2 µM; IC50 (SKM-1): > 2 µM; IC50 (TC-YIK): > 2 µM |
| Cc1ccc(-n2nc(C(C)(C)C)cc2NC(=O)Nc2ccc(OCCN3CCOCC3)c3ccccc23)cc1 [DORAMAPIMOD] | > 10 | > 10 | > 10 | > 10 | > 10 | > 10 | > 10 | > 10 | > 10 | > 10 | > 10 | > 10 | > 10 | > 10 |  |  |  |  |  |
| CCCCCCCCCCCC1=C(O)C(=O)C=C(O)C1=O [EMBELIN] |  |  |  |  |  |  |  |  |  |  |  |  |  |  | 17.1 | 13.4 | > 32 | > 32 | IC50 (DMS-53): 15.5 µM; IC50 (EFE-184): 26.1 µM; IC50 (HCC1143): 7.14 µM; IC50 (NCI-H1618): > 32 µM; IC50 (NCI-H2227): > 32 µM; IC50 (NCI-H838): > 32 µM; IC50 (PLC-PRF-5): 6.93 µM; IC50 (SNG-M): 7.05 µM; IC50 (SNU-475): > 32 µM; IC50 (TT): 23.5 µM; IC50 (COLO 205): 3.87 µM |
| CO[C@@H]1[C@H](N(C)C(=O)c2ccccc2)C[C@H]2O[C@]1(C)n1c3ccccc3c3c4c(c5c6ccccc6n2c5c31)C(=O)NC4 [MIDOSTAURIN] |  |  |  |  |  |  |  |  |  |  |  |  |  |  | > 0.512 | > 0.512 | > 0.512 | 0.349 |  |
| NC1(c2ccc(-c3nc4ccn5c(=O)[nH]nc5c4cc3-c3ccccc3)cc2)CCC1 [MK-2206] | 3.94 | 1.17 | 0.499 | 0.389 | > 4 |  | > 4 | 2.15 | > 4 | > 4 |  | > 4 | > 4 | > 4 |  |  |  |  |  |
| CC1(C)CCC(c2ccc(Cl)cc2)=C(CN2CCN(c3ccc(C(=O)NS(=O)(=O)c4ccc(N[C@H](CCN5CCOCC5)CSc5ccccc5)c(S(=O)(=O)C(F)(F)F)c4)cc3)CC2)C1 [NAVITOCLAX] | 0.0379 | > 2 | > 2 | > 2 | 0.186 | > 2 | > 2 | > 2 | 0.0605 | > 2 | > 2 | > 2 | > 2 | > 2 |  |  |  |  |  |
| C/C(=C\c1csc(C)n1)[C@@H]1C[C@@H]2O[C@]2(C)CCC[C@H](C)[C@H](O)[C@@H](C)C(=O)C(C)(C)[C@@H](O)CC(=O)O1 [PATUPILONE] |  |  |  |  |  |  |  |  |  |  |  |  |  |  | 0.0106 | 0.0221 | > 0.032 | 0.00537 | IC50 (DMS-53): > 0.032 µM; IC50 (EFE-184): > 0.032 µM; IC50 (HCC1143): > 0.032 µM; IC50 (NCI-H1618): 0.00762 µM; IC50 (NCI-H2227): > 0.032 µM; IC50 (NCI-H838): 0.0118 µM; IC50 (PLC-PRF-5): > 0.032 µM; IC50 (SNG-M): 0.000571 µM; IC50 (SNU-475): > 0.032 µM; IC50 (TT): > 0.032 µM; IC50 (COLO 205): 0.000802 µM |
| CS(=O)(=O)N1CCN(Cc2cc3nc(-c4cccc5[nH]ncc45)nc(N4CCOCC4)c3s2)CC1 [PICTILISIB] |  | 0.687 | > 4 |  | > 4 | 2.51 | > 4 | > 4 | > 4 | > 4 | > 4 | > 4 | > 4 | > 4 |  |  |  |  |  |
| CN(C)CCOc1ccc(-c2nc(-c3ccncc3)c(-c3ccc4c(c3)CC/C4=N\O)[nH]2)cc1 [SB590885] | > 5 | > 5 | 0.351 | 0.401 | > 5 | > 5 | > 5 | > 5 | > 5 | > 5 | > 5 | > 5 | > 5 | > 5 |  |  |  |  |  |
| COc1cc(N2CCC(N3CCN(C)CC3)CC2)ccc1Nc1ncc(Cl)c(Nc2ccccc2S(=O)(=O)C(C)C)n1 [TAE-684] |  |  |  |  |  |  |  |  |  |  |  |  |  |  |  |  |  |  | IC50 (CP67-MEL): > 2 µM; IC50 (EW-12): > 2 µM; IC50 (NCI-H128): > 2 µM; IC50 (SKM-1): > 2 µM; IC50 (TC-YIK): > 2 µM |
